The source of these data is ChEMBL document CHEMBL1287647, “Synthesis and characterization of a iodine-125-labeled pyrrolo[1,2-a]thieno[3,2-e]pyrazine and evaluation as a potential 5-HT4R SPECT tracer” (Eur J Med Chem, 2010).

Assay [1] has as its target 5-hydroxytryptamine receptor 4 (Cavia porcellus) (UniProt O70528). Briefly: Displacement of [3H]GR113808 from 5HT4 receptor in guinea pig striatal membranes at 1 uM. It counts as cell membranes. To be noted: Striatum, Membrane.
Assay [2] deals with 5-hydroxytryptamine receptor 4 (Cavia porcellus, UniProt O70528). Put plainly: Displacement of [3H]GR113808 from 5HT4 receptor in guinea pig striatal membranes. The assay is classed as cell membranes, Striatum, Membrane.
Sequence of 5-hydroxytryptamine receptor 4 (O70528 whole entry): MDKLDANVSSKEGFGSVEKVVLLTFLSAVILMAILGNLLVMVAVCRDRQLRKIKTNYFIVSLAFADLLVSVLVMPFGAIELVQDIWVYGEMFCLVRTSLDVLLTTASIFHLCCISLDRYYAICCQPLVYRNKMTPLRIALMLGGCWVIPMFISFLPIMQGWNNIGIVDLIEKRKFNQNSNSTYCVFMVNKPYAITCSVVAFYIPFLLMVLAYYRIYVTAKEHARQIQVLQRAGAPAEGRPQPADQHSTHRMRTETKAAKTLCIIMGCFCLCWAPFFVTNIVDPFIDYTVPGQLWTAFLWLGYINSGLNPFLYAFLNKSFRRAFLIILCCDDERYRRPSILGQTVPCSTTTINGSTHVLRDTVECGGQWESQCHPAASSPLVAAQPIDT

Sequence of 5-hydroxytryptamine receptor 4 (Cavia porcellus) (O70528 whole entry): as above

Molecule `Cc1csc2nc(OCC3CCN(C/C=C/I)CC3)c3cccn3c12` came in with an inhibition in assay [1] of 87%. In assay [2], this molecule showed a Ki of 129 nM.
For `C#CCN1CCC(COc2nc3scc(C)c3n3cccc23)CC1`, in that order: 85% and 891 nM.
